Patent US20130040882A1, “USE OF FIBROBLAST GROWTH FACTOR FRAGMENTS” (NOVARTIS AG, priority 2003, published 2013)
Entries after “also recorded” stand apart in the source; their conditions may differ.

Assays:
[1] = Blind monkey trial of three peptides: biochemistry, clinical chemistry screening and histopathology; assay type: in vivo, cynomolgus monkeys; conditions: 100 μg/animal/day sc, two weeks
Method: For the verification of the selected human proteins or peptides in cynomolgus monkeys, one control and four treated groups (i.e., each of three peptides and placebo) of two males and two females are treated for two weeks by daily administration of the proteins dissolved in autologous serum (e.g., in each animal's own serum) through the subcutaneous route. The administration of the peptides was blinded. The amount of peptide administered was 100 μg/animal/day (5-6 mg of peptide total).
Drug profiling in these non-human primates was analyzed using gene expression profiling of more than 100 organs on Affymetrix U95 chips (each containing ⅓ of the human genome). In addition, extensive biochemistry and clinical chemistry screening (>60 parameters) and histopathology (ca. 60 organs) were performed.

[2] = test system: gene expression in organs; assay: Blind monkey trial of three peptides: gene expression profiling of organs on Affymetrix U95 chips; assay type: in vivo, cynomolgus monkeys; conditions: 100 μg/animal/day sc, two weeks

For “Peptide 2: gonadotrophin releasing hormone (QHWSYGLRPG; Gonadoliberin-1; UniProt P01148 24-33, looked up)”, the “Findings by the Data Mining Team: Biochemistry/Histopathology/Haematology (parameter with direction)” value [1] was “Slight increase in aldosterone”, the “Conclusions of the in vivo Profiling by the Data Mining Team: Function/Pathway” value [2] was “Ovarian and testicular” and the “Findings by the Data Mining Team: Adrenals (gene with direction)” value [2] was “Follistatin+; also recorded: IGF2+; also recorded: catecholamines synthesis+; also recorded: activin A−/inhibin+”. The “Findings by the Data Mining Team: Bone marrow (gene with direction)” value [2] was “Macrophages+; also recorded: eosinophils+; also recorded: activin A−; also recorded: inhibin betaB+”, the “Findings by the Data Mining Team: Hypothalamus (gene with direction)” value [2] was “Transthyretin+; also recorded: oxytocin” and the “Findings by the Data Mining Team: Kidney (gene with direction)” value [2] was “Thiol protease inhibitor (aldosterone + in biochemistry), and +GAPDH and +STAT and +JAK and +TEGT”. The “Findings by the Data Mining Team: Liver (gene with direction)” value [2] was “Activin A−; also recorded: inhibin betaB+; also recorded: lipid metabolism+; also recorded: glycolysis+; also recorded: follistatin+; also recorded: IDO1+; also recorded: VEGF−”, the “Findings by the Data Mining Team: Mammary gland” value [2] was “Inconclusive; Sampling heterogenous” and the “Findings by the Data Mining Team: Ovary (gene with direction)” value [2] was “Nuclear receptors−; also recorded: aromatase and estrogen synthase+; also recorded: activinA−; also recorded: inhibin beta B+”. The “Findings by the Data Mining Team: Testis (gene with direction)” value [2] was “CREM+”, the “Findings by the Data Mining Team: Thymus (gene with direction)” value [2] was “Integrin alpha6+; also recorded: VAP1+; also recorded: lipid metabolism; also recorded: binding protein+,” and the “Findings by the Data Mining Team: Thyroid (gene with direction)” value [2] was “Ocludin+; also recorded: thyroid hormone binding protein+; also recorded: THR alpha−”.
